In ChEMBL document CHEMBL1156103, “Ionic liquid mediated and promoted eco-friendly preparation of thiazolidinone and pyrimidine nucleoside-thiazolidinone hybrids and their antiparasitic activities” (Bioorg Med Chem Lett, 2009):

Key:
[1] = system: Trypanosoma brucei brucei; test: Antitrypanosomal activity against Trypanosoma brucei brucei GVR 35 trypomastigotes after 72 hrs by MTT assay; type: functional, organism-based; conditions: GVR 35, 72 h
[2] = system: Leishmania donovani; test: Antileishmanial activity against Leishmania donovani LV9 promastigotes after 72 hrs by MTT assay; type: functional, organism-based; conditions: LV9, 72 h

| SMILES | IC50 [1] | IC50 [2] |
| --- | --- | --- |
| CC(=O)OC[C@H]1O[C@@H](n2cc(C3SCC(=O)N3c3ccc(C)cc3)c(=O)[nH]c2=O)C[C@@H]1OC(C)=O (some centres undefined) | > 100 µM | 100 µM |
| CC(=O)OC[C@H]1O[C@@H](n2cc(C3SCC(=O)N3c3ccc(F)cc3)c(=O)[nH]c2=O)C[C@@H]1OC(C)=O (some centres undefined) | > 100 µM | 50 µM |
| CC(=O)OC[C@H]1O[C@@H](n2cc(C3SCC(=O)N3c3ccccc3)c(=O)[nH]c2=O)C[C@@H]1OC(C)=O (some centres undefined) | > 100 µM | 50 µM |
| CC(=O)OC[C@H]1O[C@@H](n2cc(C3SCC(=O)N3c3ccccn3)c(=O)[nH]c2=O)C[C@@H]1OC(C)=O (some centres undefined) | > 100 µM | > 100 µM |
| CC(=O)OC[C@H]1O[C@@H](n2cc(C3SCC(=O)N3c3cccc([N+](=O)[O-])c3)c(=O)[nH]c2=O)C[C@@H]1OC(C)=O (some centres undefined) | > 100 µM | > 100 µM |
| CC(=O)OC[C@H]1O[C@@H](n2cc(C3SCC(=O)N3c3cccc(Br)n3)c(=O)[nH]c2=O)C[C@@H]1OC(C)=O (some centres undefined) | > 100 µM | 50 µM |
| CC(=O)OC[C@H]1O[C@@H](n2cc(C3SCC(=O)N3c3ccc(Cl)cc3)c(=O)[nH]c2=O)C[C@@H]1OC(C)=O (some centres undefined) | > 100 µM | 25 µM |
